From patent publication US20120022121A1, “INDOLES, DERIVATIVES AND ANALOGS THEREOF AND USES THEREFOR” (priority 2007, published 2012)
Like-named read-outs stand apart in the source and are kept apart here. Each block holds one compound with its values, some of them ahead of it.

Key:
[1] = system: PC-3; assay: Growth inhibition assay (SRB, 96 h); assay type: cell-based, human; conditions: Homo sapiens, PC-3, 96 h
From the text: (§1) MTT (3-(4,5-dimethylthiazol-2-yl)-2,5-diphenyltetrazolium bromide) assay was also used for the leukemia cell lines. […] Cells were stained with SRB solution or MTT solution.

[2] = system: HT-29; assay: Growth inhibition assay (SRB, 96 h); assay type: cell-based; conditions: Homo sapiens, HT-29, 96 h
From the text: as §1

[3] = system: MCF-7; assay: Growth inhibition assay (SRB, 96 h); assay type: cell-based; conditions: Homo sapiens, MCF7; MCF-7, 96 h
From the text: as §1

[4] = system: TSU-Pr1; assay: Growth inhibition assay (SRB, 96 h); assay type: cell-based; conditions: Homo sapiens, TSU-Pr1, 96 h
From the text: as §1

[5] = system: K562; assay: Growth inhibition assay (MTT, 96 h); assay type: cell-based; conditions: Homo sapiens, K562 (parental)
From the text: as §1

[6] = system: K562/Dox; assay: Growth inhibition assay (MTT, 96 h); assay type: cell-based, human
From the text: as §1

[7] = system: HEK293-pcDNA3.1; assay: Growth inhibition assay (96 h); assay type: cell-based, human; conditions: HEK293-pcDNA3.1 (control for MRP)
From the text: as §1

[8] = system: MES-SA/DX5; assay: Growth inhibition assay (96 h); assay type: cell-based, human; conditions: MES-SA/DX5 vs MES-SA (P-gp)
From the text: as §1

[9] = system: HEK293-MRP1; assay: Growth inhibition assay (96 h); assay type: cell-based, human; conditions: for resistance factor (ratio of IC50 resistant subline to parental cell line): HEK293-MRP1 vs HEK293-pcDNA3.1
[10] = system: MRP1 (over-expressed in the cells); assay: Growth inhibition assay (96 h); assay type: cell-based, human; conditions: human, HEK293 cells over-expressing MRP1 (HEK293-MRP1); HEK293-MRP1, MRP1 over-expressed, 96 h
[11] = system: HEK293-MRP2; assay: Growth inhibition assay (96 h); assay type: cell-based, human; conditions: for resistance factor (ratio of IC50 resistant subline to parental cell line): HEK293-MRP2 vs HEK293-pcDNA3.1
[12] = system: MRP2 (over-expressed in the cells); assay: Growth inhibition assay (96 h); assay type: cell-based, human; conditions: human, HEK293 cells over-expressing MRP2 (HEK293-MRP2); HEK293-MRP2, MRP2 over-expressed, 96 h
[13] = system: human cancer cell lines from prostate, colon, breast, and bladder; assay: Cell proliferation by SRB assay, panel of cell lines; assay type: cell-based; conditions: read-out: IC50 values, range over cell lines
Protocol: as §1
Cell proliferation was measured by SRB assay.

[14] = system: PC-3 cells; assay: Cell cycle analysis (PI staining, FACS); assay type: cell-based, human; conditions: Homo sapiens; PC-3, 24 h, 0.1 nM to 1 μM; read-out: EC50 of cell cycle arrest in G2M phase
Protocol: Cell cycle distribution was determined by propidium iodide (PI) staining. Treated cells were washed with PBS and fixed with 70% ice-cold ethanol overnight. Fixed cells were then stained with 20 μg/mL of PI in the presence of RNase A (300 μg/mL) at 37° C. for 30 min. Cell cycle distribution was analyzed by fluorescence-activated cell sorting (FACS).

[15] = system: PC-3 cells; assay: Indirect immunofluorescence microscopy of microtubules; assay type: cell-based, human; conditions: 24 h, anti-α-tubulin-FITC
Protocol: PC-3 cells were plated on poly-D-lysine coated glass cover slips in 6-well plates (5×10^4 cells/well) the day before treatment. After cells were incubated with cytotoxic agents at 37° C. for 24 h, cells were fixed on the cover slips with 4% formaldehyde in PBS for 10 min and permeabilized by 2% Triton-X in PBS for 5 min at rt. Fixed cells were blocked with 3% bovine serum albumin in TBST for 30 min and incubated with anti-α-tubulin-FITC antibody (1:100 dilution) at 4° C. overnight. Cover slips were mounted on slides using mounting medium with 4′,6-diamidino-2-phenylindole (DAPI), followed by microscopic analysis with a Zeiss Axioplan 2 fluorescent microscope (Carl Zeiss, Thornwood, N.Y.). Images were acquired with a Zeiss Axiocam HRc, using Zeiss AxioVision.

[16] = system: PC-3 xenografts; assay: In vivo antitumor efficacy, PC-3 xenograft; conditions: 5 mg/kg
[17] = system: MES-SA xenografts; assay: In vivo antitumor efficacy, MES-SA xenograft; parameters: species or system mice; conditions: 5 mg/kg, q2d, i.p.
Protocol: (§2) The control group was treated with vehicle (10% DMSO in PEG300).

[18] = system: MES-SA/DX5 xenografts; assay: In vivo antitumor efficacy, MES-SA/DX5 xenograft; conditions: MES-SA/DX5 xenograft, 5 mg/kg, q2d, i.p.
Protocol: as §2

[19] = system: K562/Dox; assay: Cell viability MTT assay, 96 h; assay type: cell-based; conditions: Homo sapiens, doxorubicin-resistant
Protocol: (§3) Cells were seeded in 96-well plates and incubated with different concentrations of compound 13, 68 or other anticancer drugs for 96 h. Cell viability was quantitated by MTT assay. […] Table 4 is a comparison of the IC50 of compounds 13, 68 and other anticancer drugs in the K562 and doxorubicin-resistant K562/DOX cell lines.

[20] = system: K562; assay: Cell viability MTT assay, 96 h; assay type: cell-based; conditions: Homo sapiens
Protocol: as §3

[21] = system: PC-3 xenograft; assay: Antitumor activity in PC-3 xenograft; assay type: in vivo, Balb/c mice; conditions: 15 mg/kg/d for 4 days
Protocol: PC-3 tumor cells (2×10^6 cells) were suspended in saline and injected S.C. in both flanks of recipient mice (n=15). Tumor size was measured every other day and volume calculated as V=π/6*(length)x(width)^2 (75). […] Tumor growth and body weight was monitored every other day for the remainder of the study.

[22] = system: HT-29; conditions: HT-29 cells, literature value (Rose 1995); cited from earlier work
[23] = system: MCF-7; conditions: MCF-7 cells, literature value (Rose 1995); cited from earlier work
[24] = system: HEK293-pcDNA3-10; assay: Growth inhibition assay (96 h); assay type: cell-based, human; conditions: HEK293-pcDNA3-10 (control for BCRP)
From the text: as §1

[25] = system: HEK293-482R2; assay: Growth inhibition assay (96 h); assay type: cell-based, human; conditions: HEK293-482R2, BCRP over-expressed, 96 h

Compound: CC(=O)O[C@@]12CO[C@@H]1C[C@H](O)[C@@]1(C)C(=O)[C@H](O)C3=C(C)[C@@H](OC(=O)[C@H](O)[C@@H](NC(=O)OC(C)(C)C)c4ccccc4)C[C@@](O)([C@@H](OC(=O)c4ccccc4)[C@H]21)C3(C)C [Docetaxel]
IC50 [1]: 6 nM | IC50 [2]: 4.1 ± 0.2 nM | IC50 [3]: 3.8 ± 0.8 nM | IC50 [4]: 2.6 ± 0.9 nM | IC50 [5]: 2.7 ± 1 nM | IC50 ([6]; Homo sapiens, K562/Dox, P-gp over-expressed, 96 h): 548 ± 76 nM | resistance factor (ratio of IC50 resistant subline to parental cell line) ([6]; K562/Dox vs K562 (P-gp)): (203) | IC50 ([7]; Homo sapiens): 4.4 ± 2 nM | resistance factor (ratio of IC50 resistant subline to parental cell line) [8]: (13) | resistance factor (ratio of IC50 resistant subline to parental cell line) [9]: (7.2) | resistance factor (ratio of IC50 resistant subline to parental cell line) ([9]; listed as docetaxel): 7.2 | IC50 at 96 h [10]: 31.3 ± 5 nM | resistance factor (ratio of IC50 resistant subline to parental cell line) [11]: (7.6) | resistance factor (ratio of IC50 resistant subline to parental cell line) ([11]; listed as docetaxel): 7.6 | IC50 at 96 h [12]: 33.1 ± 4 nM | IC50 [13]: 1.1 to 6.3 nM | EC50 [14]: 14 nM | microtubule changes by immunofluorescence [15]: stabilization of microtubules | end of study survival rate ([16]; PC-3 xenograft, 2 days/week): less than 30% | mice survived after 3 weeks ([16]; male, nu/nu, mouse, in vivo, 3 weeks): 70% | TGI (tumor growth inhibition) [17]: 54% | TGI (tumor growth inhibition) [18]: 9%

IC50 [19]: 1480 ± 480 nM | IC50 [20]: 12.2 ± 0.2 nM
Compound: CC(=O)O[C@H]1C(=O)[C@@]2(C)[C@H]([C@H](OC(=O)c3ccccc3)[C@]3(O)C[C@H](OC(=O)[C@H](O)[C@@H](NC(=O)c4ccccc4)c4ccccc4)C(C)=C1C3(C)C)[C@]1(OC(C)=O)CO[C@@H]1C[C@@H]2O [Taxol]
PC-3 xenograft growth [21]: potently suppressed | body weight [21]: significant decreases in body weight | IC50 [22]: ~2.5 nM | IC50 [23]: ~2.5 nM

Compound: CCc1c2c(nc3ccc(O)cc13)-c1cc3c(c(=O)n1C2)COC(=O)[C@]3(O)CC [SN-38]
IC50 [24]: 2.9 ± 0.3 nM | IC50 [7]: 8.4 ± 1 nM | IC50 ([9]; HEK293-MRP1, MRP1 over-expressed, 96 h): 17.7 ± 1 nM | IC50 ([11]; HEK293-MRP2, MRP2 over-expressed, 96 h): 12.4 ± 1 nM | IC50 [25]: 94.3 ± 20 nM
